{"source": "patent US12404279B2", "about": "“Deubiquitinase inhibitors and methods of use thereof” (Molecure S.A., priority 2021, dated 2025)", "key": {"CD4+ T cells [1]": {"test_system": "CD4+ T cells", "assay": "In vivo and ex vivo immunomodulatory effect in BALB/c mice (splenic CD4+ T cells)", "format": "cell-based", "description": "BALB/c mice (10-week-old females, n=3) were administered with Example 77 at 200 mg/kg (BID) by oral gavage for 3 consecutive days. Untreated mice were used as the control group (n=3). Animals were sacrificed 16 hours following the last dosing. The spleens were collected and total CD4^+ lymphocytes were isolated by bead-based negative separation according to the manufacturers manual (EasySep™ Mouse CD4+ T cell Isolation Kit, StemCell; Cat. #19852). The purity of splenic CD4^+ T cells exceeded 95%, as confirmed by flow cytometric analysis following staining with anti-mouse CD3 and CD4 antibodies. Isolated CD4^+ T cells were seeded in triplicates (50 000 cells/well in RPMI full medium) on 96-well U-bottom plate covered with 1 μg/mL anti-CD3 and 1 μg/mL anti-CD28 antibodies (for stimulation and activation of cells). Following one hour preincubation in 37° C. degree, CD4^+ T cells were treated with 2 μM of Example 77, the final concentration of DMSO in wells was 0.03%. After 72 h lymphocytes activation was evaluated by testing viability, cytotoxicity and cytokine release: mTNF-α and mIFN-γ.\n• 1. ATP level in cell lysates (CellTiterGlo Viability Assay, Promega) • 2. Lactate dehydrogenase (LDH) level in cell culture medium (LDH-Glo Cytotoxicity Assay, Promega) • 3. Cell counting (Fluorescence staining, Luna automated cell counter, Logos Biosystems) • 4. mTNF-α in supernatants by ELISA • 5. mIFN-γ in supernatants by ELISA"}, "CT26 cells": {"test_system": "CT26 cells", "assay": "Killing assay: splenocytes of tumor-bearing mice co-cultured with CT26 cells", "format": "cell-based, mouse", "settings": "co-culture with CT26 cells 1:10 and 1:50, 36 h", "description": "To investigate the killing capability of T cells the splenocytes were isolated from tumor-bearing mice treated and untreated with different concentrations of Example 77. CT26 cells were seeded and stained with Green Cell Tracker. Stained CT26 cells were co-cultured with splenocytes from experimental animals in two ratios 1:10 and 1:50. After 36 h cells were harvested and analyzed on the flow cytometer."}, "CD4+ T cells [2]": {"test_system": "CD4+ T cells", "assay": "Immunomodulatory effect on isolated, anti-CD3/anti-CD28 activated CD4+ T cells from C57BL/6 mice", "format": "cell-based", "from_the_text": "(§1) Splenocytes from three C57BL/6 mice donors were isolated separately. Next, specific CD4^+ cells were extracted from all splenocytes with EasySep™ Mouse CD4^+ T cell Isolation Kit by negative selection (StemCell; Cat. #19852). The purity of splenic CD4^+ T cells exceeded 95%, as confirmed by flow cytometric analysis following staining with anti-mouse CD3 and CD4 antibodies. Pure CD4^+ cells were subsequently seeded in RPMI full medium (50 000 cells/well) on 96-well U-bottom plate covered with 1 μg/mL antiCD3 and 1 μg/mL antiCD28 (for stimulation and activation). Then. […] The final concentration of DMSO in wells was 0.03%. After 72 h, lymphocyte activation was evaluated by counting, testing viability (LDH Assay, CellTiter Glo Assay) and cytokine. Statistical significance of observed effects was determined based on mean values calculated from technical replicates for each mouse (n=9; experiment was performed three times). • 1. ATP level in cell lysates (CellTiterGlo Viability Assay. Promega;) • 2. LDH level in cell culture medium • 3. Cell counting (Orange-Acridine staining, Luna automated cell counter, Logos Biosystems) • 4. mTNF-α in supernatants (ELISA) • 5. mIFN-γ in supernatants (ELISA) • 6. Magpix Luminex (T-Cells Panel: GM-CSF, IFN-γ, IL-10 TNF-α)"}, "[3]": {"assay": "Immunomodulatory effect on isolated, anti-CD3/anti-CD28 activated CD4+ T cells from C57BL/6 mice", "format": "cell-based", "settings": "C57BL/6; activated mouse CD4+ T cells, 72 h; read-out: cytotoxicity IC50 (cell viability, CellTiter Glo Assay)", "from_the_text": "as §1"}, "[4]": {"test_system": "CT26 model of colon carcinoma", "assay": "Antitumor efficacy in the subcutaneous CT26 syngeneic model of colon carcinoma", "protocol": "The 7-8-week old BALB/c females (BALB/cAnNCrl, Charles River Laboratories) were injected subcutaneously in the right flank with 5×10^5 CT26 cells. USP7 inhibitors were dosed by oral gavage twice per day at indicated doses starting from 2-5 days after the tumor implantation. […] Tumor volume was estimated by a formula: width×length×depth×π/6."}, "full-length USP7": {"biological_target": "full-length USP7 (Homo sapiens (Human), UniProt Q93009)", "sequence (Q93009 whole entry)": "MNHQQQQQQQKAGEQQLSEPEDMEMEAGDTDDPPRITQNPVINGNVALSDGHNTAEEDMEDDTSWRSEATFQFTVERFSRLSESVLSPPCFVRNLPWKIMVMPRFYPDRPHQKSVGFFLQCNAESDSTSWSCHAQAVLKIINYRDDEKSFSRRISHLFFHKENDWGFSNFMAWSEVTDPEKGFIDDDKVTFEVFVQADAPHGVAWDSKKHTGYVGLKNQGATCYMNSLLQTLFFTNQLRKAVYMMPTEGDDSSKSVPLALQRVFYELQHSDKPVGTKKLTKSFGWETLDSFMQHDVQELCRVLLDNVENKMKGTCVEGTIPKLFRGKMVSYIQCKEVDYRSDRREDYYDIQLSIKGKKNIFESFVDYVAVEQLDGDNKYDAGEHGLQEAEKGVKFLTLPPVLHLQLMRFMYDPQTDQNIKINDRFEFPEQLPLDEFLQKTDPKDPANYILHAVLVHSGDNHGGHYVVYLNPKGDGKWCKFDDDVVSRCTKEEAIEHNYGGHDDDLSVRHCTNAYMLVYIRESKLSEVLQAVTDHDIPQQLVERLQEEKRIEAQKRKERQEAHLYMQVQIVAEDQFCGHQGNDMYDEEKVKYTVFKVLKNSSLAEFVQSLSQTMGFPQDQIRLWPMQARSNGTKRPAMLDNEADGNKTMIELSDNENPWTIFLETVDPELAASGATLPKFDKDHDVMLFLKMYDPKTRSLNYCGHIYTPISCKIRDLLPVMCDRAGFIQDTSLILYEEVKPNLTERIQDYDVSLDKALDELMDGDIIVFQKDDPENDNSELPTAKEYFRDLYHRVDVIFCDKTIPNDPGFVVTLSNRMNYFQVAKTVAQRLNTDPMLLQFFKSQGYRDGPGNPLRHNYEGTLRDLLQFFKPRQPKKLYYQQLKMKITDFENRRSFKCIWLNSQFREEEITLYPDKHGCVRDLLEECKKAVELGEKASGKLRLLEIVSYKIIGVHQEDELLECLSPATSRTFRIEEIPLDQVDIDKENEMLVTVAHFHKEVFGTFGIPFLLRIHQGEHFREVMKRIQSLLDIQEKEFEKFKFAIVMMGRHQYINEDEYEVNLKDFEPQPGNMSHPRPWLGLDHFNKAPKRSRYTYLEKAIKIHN", "assay": "Enzymatic assay to determine IC50 of USP7 inhibitors (Ubiquitin-Rhodamine 110 cleavage)", "format": "biochemical", "settings": "0.5 nM USP7, 0.5 μM Ubiquitin-Rhodamine 110, 45 min at 37° C.", "summary_of_the_method": "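Full-length USP7 (0.5 nM) in 50 mM HEPES pH 7.5, 150 mM NaCl, 1 mM DTT, 1 mg/ml BSA, 0.05% Tween20 was preincubated 15 min with DTT at room temperature before compound addition.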"}, "mouse CD8+ T cells": {"test_system": "mouse CD8+ T cells", "assay": "Cytotoxic effect on mouse CD8+ T cells (splenocytes, flow cytometry)", "format": "cell-based", "settings": "24 hours of incubation", "description": "In these experiments, the mouse splenocytes were seeded into in 24-well plate and after 24 hours of incubation with USP7 inhibitors the T cells viability was analyzed with flow cytometry. […] Mann-Whitney test."}, "[5]": {"settings": "2 μM, 72 h, LDH-Glo cytotoxicity assay"}, "[6]": {"settings": "0.5-2.5 μM, 72 h, ELISA / Magpix Luminex"}, "[7]": {"settings": "0.5-2.5 μM, 72 h, Magpix Luminex"}}, "note": "“Also recorded” adds a separate entry of the source."}
{"smiles": "CN[C@H]1CCN(C(=O)c2c(C)cc(C(F)(F)F)nc2-c2ccnc3cc(CN4C(=O)C5C(C4=O)C5(C)C)sc23)C1.Cl.Cl", "note": "(stereo partly drawn) [Example 77, 6,6-dimethyl-3-((7-(4-methyl-3-((S)-3-(methylamino)pyrrolidine-1-carbonyl)-6-(trifluoromethyl)pyridin-2-yl)thieno[3,2-b]pyridin-2-yl)methyl)-3-azabicyclo[3.1.0]hexane-2,4-dione dihydrochloride]", "values": [{"measurement": "pro-inflammatory cytokines release after additional ex vivo treatment of isolated T-cells", "setting": "CD4+ T cells [1]; 2 μM ex vivo, 72 h", "result": "additionally increases"}, {"measurement": "total ATP level (CellTiter Glo Assay)", "setting": "CD4+ T cells [1]; 2 μM, 72 h", "result": "didn't affect"}, {"measurement": "CD4+ T cells activation and pro-inflammatory cytokines release: TNF-α and IFN-γ", "setting": "CD4+ T cells [1]; 2 μM, 72 h, ELISA", "result": "does not affect"}, {"measurement": "LDH concentration in the culture medium vs. positive control", "setting": "CD4+ T cells [1]; [5]", "result": "≤ 5", "unit": "%"}, {"measurement": "cytotoxicity for CD4+ T-cells", "setting": "CD4+ T cells [1]; [5]", "result": "not cytotoxic"}, {"measurement": "T cells viability", "setting": "CD4+ T cells [1]; CD4+ T cells, 2 μM, 72 h", "result": "does not affect"}, {"measurement": "ex vivo pro-inflammatory cytokine release of activated CD4+ T cells from treated mice vs. control mice", "setting": "CD4+ T cells [1]; mice dosed 200 mg/kg BID by oral gavage for 3 days", "result": "much more"}, {"measurement": "killing capability of splenocytes from treated CT26-bearing mice vs. control mice", "setting": "CT26 cells", "result": "enhanced killing capability"}, {"measurement": "IFNg level in supernatants", "setting": "CD4+ T cells [2]; [6]", "result": "Statistically significant increase"}, {"measurement": "TNFa level in supernatants", "setting": "CD4+ T cells [2]; [6]", "result": "not affected"}, {"measurement": "GM-CSF level in supernatants", "setting": "CD4+ T cells [2]; [7]", "result": "Statistically significant increase"}, {"measurement": "IL-10 level in supernatants", "setting": "CD4+ T cells [2]; [7]", "result": "not affected"}, {"measurement": "times less cytotoxic than the reference RAPT compound", "setting": "CD4+ T cells [2]; CellTiter Glo Assay, head to head", "result": 10}, {"measurement": "viability by cell counting (Luna cell counter, trypan blue)", "setting": "CD4+ T cells [2]; after 72 h of incubation", "result": "comparable to that obtained with CellTiter Glo"}, {"measurement": "CD4+ T cells activation and pro-inflammatory cytokine release", "setting": "CD4+ T cells [2]; low concentration (0.5-2.5 μM)", "result": "does not disturb"}, {"measurement": "IC50 at 72 h", "setting": "[3]", "result": "~9", "unit": "µM"}, {"measurement": "TGI", "setting": "[4]; 100 mg/kg PO BID, anti-PD-1 combination experiment", "result": 69, "unit": "%"}, {"measurement": "increase in survival time vs. anti-PD-1 monotherapy group", "setting": "[4]; 100 mg/kg PO BID, log-rank test", "result": 26, "unit": "%"}, {"measurement": "percent of CD8+ T cells in tumor", "setting": "[4]; 100 mg/kg, cytometric analysis", "result": "increase"}, {"measurement": "interferon-γ production in CD8+ T cells", "setting": "[4]; 100 mg/kg, data not shown", "result": "enhanced amounts"}, {"measurement": "granzyme B production in CD8+ T cells", "setting": "[4]; 100 mg/kg, flow cytometry", "result": "enhanced amounts"}, {"measurement": "antitumor effect after injection of CD8-depleting anti-CD8 antibodies", "setting": "[4]; anti-CD8 antibody 100 μg intraperitoneally on days 1, 7 and 14, dihydrochloride", "result": "completely abrogated; also recorded: requires CD8+ T cells"}, {"measurement": "effect on the therapeutic effect of anti-PD-1 antibody", "setting": "[4]; combination with anti-PD-1 antibody, dihydrochloride", "result": "potentiated; also recorded: increases the efficiency"}, {"measurement": "tumor growth inhibition (TGI)", "setting": "[4]; dose-dependent, oral gavage BID, day 20 post-inoculation, p=0.048", "result": "up to 67%"}, {"measurement": "survival time", "setting": "[4]; survival analysis, anti-PD-1 combination experiment", "result": 29, "unit": "days"}, {"measurement": "IC50", "setting": "full-length USP7", "result": "< 0.5", "unit": "µM"}, {"measurement": "cytotoxicity to CD8 T cells", "setting": "mouse CD8+ T cells", "result": "limited"}]}
